The source of these data is PubChem BioAssay (NCI).

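Dose response: 5 concentrations. Exposure: 48 h. Format: 96-well plates. Endpoint: linear interpolation; highest concentration if not reached. TGI marks complete inhibition of growth.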

What all share (test): NCI anticancer screen, dose series, 48 h
In assay [1] the test system is MCF7 breast.
In assay [2] the test system is SF-539 CNS.
The subject of assay [3] is MALME-3M melanoma.
Assay [4] has as its system UACC-257 melanoma.
Assay [5] concerns SK-MEL-5 melanoma.
The test system of assay [6] is SW-620 colon.
Assay [7] has as its system HOP-62 NSCLC.
Assay [8] deals with MDA-N.
For assay [9], the system named is TK-10 renal.
For assay [10], the system named is BT-549 breast.
The subject of assay [11] is SNB-75 CNS.

Turning to `CCOC(=O)Nc1n[nH]nc1Cl`, the TGI in assay [1], in assay [2], in [3], in assay [4], in assay [5] and in assay [6] was above 100 µM throughout. Besides, the TGI in assay [7], in assay [8], in [9], in assay [10] and in assay [11] was above 100 µM each time.
With `O=C1Nc2ccccc2/C1=C\c1c(-c2ccccc2)nc2n1CCS2`, the TGI in assay [1] is 39.3 µM; in [2] it was 39.1 µM; in [3], 74.1 µM; in [4], 45.9 µM; in assay [5], 30.2 µM; in assay [6] it was above 100 µM. Besides, the TGI in [7] is above 100 µM; in assay [8], 65 µM; in [9] it was 34.3 µM; in [10], 43.7 µM; in [11] it was 42.8 µM.
Regarding `NC(Cc1ccccc1)c1nn[nH]n1` (stereo not drawn), the TGI in assay [1], in [2], in [3], in assay [4], in assay [5] and in [6] was above 100 µM each time. Also, the TGI in assay [7], in assay [8], in assay [9], in [10] and in assay [11] was above 100 µM throughout.
On to `Fc1cccc(C2SCc3nc4cc5ccccc5cc4n32)c1` (stereo not drawn), for which the TGI in assay [1], in assay [2], in assay [3], in [4], in assay [6] and in [7] was above 100 µM each time. Further, the TGI in assay [8], in [9], in [10] and in assay [11] was above 100 µM in each case.
On to `CCCCCCCCCCCCCCCC(=O)Nc1ccn(C2CCC(COP(=O)(O)OCC3OC(n4cc(F)c(=O)[nH]c4=O)CC3OC(C)=O)O2)c(=O)n1` (stereo not drawn), for which the TGI in assay [1] was 44.1 µM; in assay [2], above 23.3 µM; in assay [3] it was 53.3 µM; in assay [4], 53.6 µM; in [5] it was 26.9 µM; in assay [6], above 52.5 µM. Also, the TGI was 37.7 µM in [7]; 50.4 µM in [8]; above 76.7 µM in [9]; 58.4 µM in assay [10]; above 67.1 µM in assay [11].
For `CCCCCCCC(CC(=O)NC(CO)C(=O)NC(CO)CC(C)C)OC(=O)CC(CCCCCCC)OC(=O)CC(CCCCCCC)OC1OC(C)C(O)C(OC2OC(C)C(O)C(O)C2O)C1O` (stereo not drawn), the TGI was above 52.3 µM in assay [1]; 24.7 µM in assay [2]; 24 µM in assay [3]; 26.6 µM in assay [4]; 21.3 µM in [5]; 33.4 µM in assay [6]. Also, the TGI in assay [7] was 35 µM; in assay [8] it was 20.5 µM; in assay [9] it was 30.8 µM; in assay [10], 28.8 µM; in [11], 24.9 µM.
In the case of `Cc1cc(C)c(S(=O)(=O)N(CCCN)OCCON(CCCN)S(=O)(=O)c2c(C)cc(C)cc2C)c(C)c1`, the TGI in assay [1] is above 100 µM; in assay [3], 3.8 µM; in assay [4], 36.5 µM; in [5] it was above 100 µM; in assay [6] it was above 100 µM; in assay [7], 11.5 µM. For the same molecule, the TGI in assay [8] worked out at 8.22 µM; in [9] it was 42.8 µM; in assay [10], 66.2 µM; in assay [11], 12.6 µM.
For the molecule `CCOC(=O)C1=CNC(C(=O)OCC)C1c1cccn1-c1ccccc1` (stereo not drawn), the TGI in [1] is above 100 µM; in assay [2], 47.1 µM; in assay [4], above 100 µM; in [5], 31.5 µM; in assay [6], above 100 µM; in assay [7] it was above 100 µM. Moreover, the TGI was 57.4 µM in [8], above 100 µM in assay [9], above 100 µM in assay [10] and 65.4 µM in [11].
Regarding `C(=N\NC1=NCCN1)/c1cccc2cc3ccncc3nc12`, the TGI in [1] is 14.5 µM; in assay [2] it was 21.2 µM; in assay [3] it was 23.4 µM; in assay [4] it was 24.6 µM; in [5] it was 22.9 µM; in [6], 6.91 µM. Besides, the TGI in [7] worked out at 19.7 µM; in [8], 11 µM; in assay [9], 22.2 µM; in [10], 29.4 µM; in [11] it was 5.04 µM.
As to `COC(=O)CC(CNC(=O)OCc1ccccc1)OCc1ccc(OC)cc1` (stereo not drawn), the TGI in [1], in [2], in assay [3], in assay [4], in assay [5] and in assay [6] was above 100 µM each time. Also, the TGI in assay [8], in assay [9], in assay [10] and in assay [11] was above 100 µM each time.
With `C=C(CCC/C(C)=C/C=C/[C@H](C)CCCc1ccoc1)C[C@@H]1OC(=O)[C@H](C)[C@@H]1O`, the TGI in assay [1] came out at 33.9 µM; in assay [2], 19.2 µM; in assay [3] it was 19.8 µM; in assay [4], 16.4 µM; in assay [5], 17 µM; in assay [6], 26.7 µM. Moreover, the TGI came to 18.8 µM in assay [7]; 20.5 µM in [8]; 22.2 µM in assay [9]; 16.9 µM in [10]; 17.3 µM in assay [11].
In the case of `COc1ccc2c(c1)-c1nc(=O)n(CCCN(C)C)c3ccc([N+](=O)[O-])c(c13)N2`, the TGI in assay [1] was 18.2 µM; in assay [2], 9.63 µM; in [3], 3.28 µM; in [4] it was 6.85 µM; in assay [5] it was 4.4 µM; in [6], above 44.3 µM. The TGI in assay [7] was 2.39 µM; in assay [8], 19.2 µM; in assay [9], 7.17 µM; in [10], 16.8 µM; in assay [11] it was 8.51 µM.
